Numbers after ± are expanded uncertainties.
Columns and labels:
[1] = Solid-liquid equilibrium temperature; conditions: Crystal, visual observation
[2] = Crystal
[3] = Molar enthalpy of transition or fusion; conditions: Crystal; DSC

Solid-liquid equilibrium temperature ([1]; 100 kPa) [K]	Solid-liquid equilibrium temperature ([1]; 20000 kPa) [K]	Solid-liquid equilibrium temperature ([1]; 40000 kPa) [K]	Solid-liquid equilibrium temperature ([1]; 60000 kPa) [K]	Solid-liquid equilibrium temperature ([1]; 80000 kPa) [K]	Normal melting temperature ([2]; DTA) [°C]	Normal melting temperature ([2]; visual observation) [°C]	Molar enthalpy of transition or fusion [3] [kcal/mol]	Compound
285.8 ± 0.4	289.9 ± 0.5	294.1 ± 0.5	298 ± 0.5	301.9 ± 0.5	13.2 ± 0.5	12.7 ± 0.5	11.3 ± 0.335	CCCCCCCCCCCCCC(=O)OCC [ethyl tetradecanoate]
272.3 ± 0.4	276.4 ± 0.5	280.3 ± 0.5	284 ± 0.5	287.4 ± 0.5	-0.9 ± 0.5	-0.8 ± 0.5	9.18 ± 0.311	CCCCCCCCCCCC(=O)OCC [ethyl dodecanoate]
297.6 ± 0.4	302 ± 0.5	306.4 ± 0.5	310.3 ± 0.5	314.3 ± 0.5	24.2 ± 0.5	24.5 ± 0.5	13.3 ± 0.359	CCCCCCCCCCCCCCCC(=O)OCC [ethyl hexadecanoate]

Source: the NIST ThermoML archive (doi:10.1016/j.fluid.2014.09.007)
